Source: patent US6740642B2, “Macrolides with antibacterial activity” (BAsilea Parmaceutica AG, priority 2000, dated 2004)
Values after ≈ are worked out from the molar mass of the structure shown.

Tests used:
[1] = system: H. influenzae Rd KW20; experiment: MIC, agar dilution, HTM medium; format: cell-based, Haemophilus influenzae; settings: Haemophilus influenzae, RDKW20, read-out: MIC
Description: (§1) The biological activities of compounds of the present invention against Haemophilus influenzae have been determined by standard agar dilution method using HTM medium (National Committee for Clinical Laboratory Standards. 1997. Methods for dilution antimicrobial susceptibility tests for bacteria that grow aerobically, 4th edition. Approved standard M7-A4. National Committee for Clinical Laboratory Standards, Wayne, Pa.).

[2] = system: H. influenzae H13 LAH; experiment: MIC, agar dilution, HTM medium; format: cell-based, Haemophilus influenzae; settings: Haemophilus influenzae, H13LAH, read-out: MIC
Description: as §1

[3] = system: H. influenzae 12214; experiment: MIC, agar dilution, HTM medium; format: cell-based, Haemophilus influenzae; settings: Haemophilus influenzae, read-out: MIC
Description: as §1

[4] = system: H. influenzae ATCC 49247; experiment: MIC, agar dilution, HTM medium; format: cell-based, Haemophilus influenzae; settings: Haemophilus influenzae, ATCC49247, read-out: MIC
Description: as §1

[5] = system: H. influenzae QK 12/87; experiment: MIC, agar dilution, HTM medium; format: cell-based, Haemophilus influenzae; settings: Haemophilus influenzae, QK12/87, read-out: MIC
Description: as §1

[6] = system: H. influenzae 3640; experiment: MIC, agar dilution, HTM medium; format: cell-based, Haemophilus influenzae; settings: Haemophilus influenzae, read-out: MIC
Description: as §1

[7] = system: H. influenzae 23145; experiment: MIC, agar dilution, HTM medium; format: cell-based, Haemophilus influenzae; settings: Haemophilus influenzae, read-out: MIC
Description: as §1

[8] = system: H. influenzae H20 HDL; experiment: MIC, agar dilution, HTM medium; format: cell-based, Haemophilus influenzae; settings: Haemophilus influenzae, H20HDL, read-out: MIC
Description: as §1

[9] = system: H. influenzae 11; experiment: MIC, agar dilution, HTM medium; format: cell-based, Haemophilus influenzae; settings: Haemophilus influenzae, read-out: MIC
Description: as §1

[10] = system: H. influenzae QK 50; experiment: MIC, agar dilution, HTM medium; format: cell-based, Haemophilus influenzae; settings: Haemophilus influenzae, QK50, read-out: MIC
Description: as §1

[11] = system: H. influenzae Christy; experiment: MIC, agar dilution, HTM medium; format: cell-based, Haemophilus influenzae; settings: Haemophilus influenzae, read-out: MIC
Description: as §1

[12] = system: H. influenzae B 1501; experiment: MIC, agar dilution, HTM medium; format: cell-based, Haemophilus influenzae; settings: Haemophilus influenzae, B1501, read-out: MIC
Description: as §1

[13] = system: H. influenzae 2947; experiment: MIC, agar dilution, HTM medium; format: cell-based, Haemophilus influenzae; settings: Haemophilus influenzae, read-out: MIC
Description: as §1

[14] = system: H. influenzae ATCC 9334; experiment: MIC, agar dilution, HTM medium; format: cell-based, Haemophilus influenzae; settings: Haemophilus influenzae, ATCC9334, read-out: MIC
Description: as §1

[15] = system: H. influenzae 3201; experiment: MIC, agar dilution, HTM medium; format: cell-based, Haemophilus influenzae; settings: Haemophilus influenzae, read-out: MIC
Description: as §1

[16] = system: H. influenzae 23369; experiment: MIC, agar dilution, HTM medium; format: cell-based, Haemophilus influenzae; settings: Haemophilus influenzae, read-out: MIC
Description: as §1

[17] = system: H. influenzae 3457; experiment: MIC, agar dilution, HTM medium; format: cell-based, Haemophilus influenzae; settings: Haemophilus influenzae, read-out: MIC
Description: as §1

[18] = system: H. influenzae 1; experiment: MIC, agar dilution, HTM medium; format: cell-based, Haemophilus influenzae; settings: Haemophilus influenzae, read-out: MIC
Description: as §1

[19] = system: H. influenzae H28 HEL; experiment: MIC, agar dilution, HTM medium; format: cell-based, Haemophilus influenzae; settings: Haemophilus influenzae, H28HEL, read-out: MIC
Description: as §1

[20] = system: H. influenzae 4139; experiment: MIC, agar dilution, HTM medium; format: cell-based, Haemophilus influenzae; settings: Haemophilus influenzae, read-out: MIC
Description: as §1

[21] = system: H. influenzae H36 ODL; experiment: MIC, agar dilution, HTM medium; format: cell-based, Haemophilus influenzae; settings: Haemophilus influenzae, H36ODL, read-out: MIC
Description: as §1

[22] = system: S. aureus 1086; experiment: MIC, standard microdilution; format: cell-based, Staphylococcus aureus; settings: Staphylococcus aureus, read-out: minimum inhibitory concentration (MIC)
Description: (§2) The antibacterial activities of the compounds have been determined by standard microdilution technique (National Committee for Clinical Laboratory Standards. 1997. Methods for dilution antimicrobial susceptibility tests for bacteria that grow aerobically, 4th edition. Approved standard M7-A4. National Committee for Clinical Laboratory Standards, Wayne, Pa.).

[23] = system: S. aureus ATCC29213; experiment: MIC, standard microdilution; format: cell-based, Staphylococcus aureus; settings: Staphylococcus aureus, read-out: minimum inhibitory concentration (MIC)
Description: as §2

[24] = system: S. aureus 745; experiment: MIC, standard microdilution; format: cell-based, Staphylococcus aureus; settings: Staphylococcus aureus, read-out: minimum inhibitory concentration (MIC)
Description: as §2

[25] = system: St. pneumoniae 1/1; experiment: MIC, standard microdilution; format: cell-based, Streptococcus pneumoniae; settings: Streptococcus pneumoniae, read-out: minimum inhibitory concentration (MIC)
Description: as §2

[26] = system: St. pneumoniae SL199T; experiment: MIC, standard microdilution; format: cell-based, Streptococcus pneumoniae; settings: Streptococcus pneumoniae, read-out: minimum inhibitory concentration (MIC)
Description: as §2

[27] = system: St. pneumoniae 12288; experiment: MIC, standard microdilution; format: cell-based, Streptococcus pneumoniae; settings: Streptococcus pneumoniae, read-out: minimum inhibitory concentration (MIC)
Description: as §2

[28] = system: St. pneumoniae 1/4; experiment: MIC, standard microdilution; format: cell-based, Streptococcus pneumoniae; settings: Streptococcus pneumoniae, read-out: minimum inhibitory concentration (MIC)
Description: as §2

[29] = system: P. aeruginosa ATCC27853 (+Ery. 32 μg/ml); experiment: MIC, standard microdilution; format: cell-based
Description: as §2

[30] = system: E. coli ATCC25922; experiment: MIC, standard microdilution; format: cell-based; settings: Escherichia coli, read-out: minimum inhibitory concentration (MIC)
Description: as §2

CC[C@H]1OC(=O)[C@H](C)[C@@H](O[C@H]2C[C@@](C)(OC)[C@@H](O)C(C)O2)[C@H](C)[C@@H](O[C@@H]2OC(C)C[C@H](N(C)C)[C@H]2O)[C@](C)(O)C[C@@H](C)CN(C)C(C)C(O)[C@]1(C)O (stereo partly drawn) [Azithromycin (3), azithromycin] showed an MIC [1] of 2 µg/mL (≈ 2.67 µM), an MIC [2] of 2 µg/mL (≈ 2.67 µM) and an MIC [3] of 2 µg/mL (≈ 2.67 µM). The MIC [4] was 2 µg/mL (≈ 2.67 µM), the MIC [5] was 0.5 µg/mL (≈ 0.668 µM) and the MIC [6] was 1 µg/mL (≈ 1.34 µM). For the same molecule, the MIC [7] was 2 µg/mL (≈ 2.67 µM), the MIC [8] was 1 µg/mL (≈ 1.34 µM) and the MIC [9] was 2 µg/mL (≈ 2.67 µM). For the same molecule, the MIC [10] was 2 µg/mL (≈ 2.67 µM), the MIC [11] was 2 µg/mL (≈ 2.67 µM) and the MIC [12] was 1 µg/mL (≈ 1.34 µM). The MIC [13] was 2 µg/mL (≈ 2.67 µM), the MIC [14] was 2 µg/mL (≈ 2.67 µM) and the MIC [15] was 2 µg/mL (≈ 2.67 µM). The MIC [16] was 4 µg/mL (≈ 5.34 µM), the MIC [17] was 0.5 µg/mL (≈ 0.668 µM) and the MIC [18] was 2 µg/mL (≈ 2.67 µM). The MIC [19] was 1 µg/mL (≈ 1.34 µM), the MIC [20] was 0.5 µg/mL (≈ 0.668 µM) and the MIC [21] was 2 µg/mL (≈ 2.67 µM).

With CC[C@H]1OC(=O)[C@H](C)[C@@H](O[C@H]2C[C@@](C)(OC)[C@@H](O)[C@H](C)O2)[C@H](C)[C@@H](O[C@@H]2O[C@H](C)C[C@H](N(C)C)[C@H]2O)[C@](C)(OC)C[C@@H](C)C(=O)[C@H](C)[C@@H](O)[C@]1(C)O [Clarithromycin (2), clarithromycin] the MIC [22] was 16 µg/mL (≈ 21.4 µM), the MIC [23] was 0.25 µg/mL (≈ 0.334 µM) and the MIC [24] was > 16 µg/mL. The MIC [25] was ≤ 0.12 µg/mL, the MIC [26] was 16 µg/mL (≈ 21.4 µM) and the MIC [27] was > 16 µg/mL. The MIC [28] was 16 µg/mL (≈ 21.4 µM), the MIC [1] was 8 µg/mL (≈ 10.7 µM) and the MIC [2] was 8 µg/mL (≈ 10.7 µM). The MIC [3] was 8 µg/mL (≈ 10.7 µM), the MIC [4] was 8 µg/mL (≈ 10.7 µM) and the MIC [5] was 2 µg/mL (≈ 2.67 µM). It also gave an MIC [6] of 4 µg/mL (≈ 5.35 µM), an MIC [7] of 8 µg/mL (≈ 10.7 µM) and an MIC [8] of 4 µg/mL (≈ 5.35 µM). For the same molecule, the MIC [9] was 16 µg/mL (≈ 21.4 µM), the MIC [10] was 8 µg/mL (≈ 10.7 µM) and the MIC [11] was 8 µg/mL (≈ 10.7 µM). It also gave an MIC [12] of 8 µg/mL (≈ 10.7 µM), an MIC [13] of 16 µg/mL (≈ 21.4 µM) and an MIC [14] of 8 µg/mL (≈ 10.7 µM). The MIC [15] was 16 µg/mL (≈ 21.4 µM), the MIC [16] was 16 µg/mL (≈ 21.4 µM) and the MIC [17] was 1 µg/mL (≈ 1.34 µM). It also gave an MIC [18] of 8 µg/mL (≈ 10.7 µM), an MIC [19] of 4 µg/mL (≈ 5.35 µM) and an MIC [20] of 4 µg/mL (≈ 5.35 µM). The MIC [21] was 16 µg/mL (≈ 21.4 µM), the “minimum inhibitory concentration (MIC)” value [29] was >16 µg/mL and the MIC [30] was > 16 µg/mL.

For CC[C@H]1OC(=O)[C@H](C)C(=O)[C@H](C)[C@@H](O[C@@H]2O[C@H](C)C[C@H](N(C)C)[C@H]2O)[C@](C)(OC)C[C@@H](C)C(=O)[C@H](C)[C@H]2[C@H](C#N)C(=O)O[C@@]21C [Compound I-23, (3R,3aS,4R,6R,8R,9R,10R,12R,15R,15aS)-15-Ethyltetradecahydro-8-methoxy-4,6,8,10,12,15a-hexamethyl-2,5,11,13-tetraoxo-9-[[3,4,6-trideoxy-3-(dimethylamino)-β-D-xylo-hexopyranosyl]oxy]-2H-furo[2,3-c]oxacyclotetradecin-3-carbonitrile], the MIC [22] was ≤ 0.25 µg/mL, the MIC [23] was ≤ 0.25 µg/mL and the MIC [24] was > 16 µg/mL. For the same molecule, the MIC [25] was ≤ 0.5 µg/mL, the MIC [26] was 32 µg/mL (≈ 50.3 µM) and the MIC [27] was > 32 µg/mL. The MIC [28] was 8 µg/mL (≈ 12.6 µM), the “minimum inhibitory concentration (MIC)” value [29] was >16 µg/mL and the MIC [30] was > 16 µg/mL.

CC[C@H]1OC(=O)[C@H](C)C(=O)[C@H](C)[C@@H](O[C@@H]2O[C@H](C)C[C@H](N(C)C)[C@H]2O)[C@](C)(OC)C[C@@H](C)C(=O)[C@H](C)[C@H]2[C@H](S(=O)(=O)CCCc3ccccc3)C(=O)O[C@@]21C [Compound I-24, (3S,3aR,4R,6R,8R,9R,10R,12R,15R,15aS)-15-Ethyloctahydro-8-methoxy-4,6,8,10,12,15a-hexamethyl-3-[(3-phenylpropyl)sulfonyl]-9-[[3,4,6-trideoxy-3-(dimethylamino)-β-D-xylo-hexopyranosyl]oxy]-2H-furo[2,3-c]oxacyclotetradecin-2,5,11,13(3H,6H,12H)-tetrone] was tested, and the MIC [22] was 1 µg/mL (≈ 1.26 µM), the MIC [23] was 1 µg/mL (≈ 1.26 µM) and the MIC [24] was > 16 µg/mL. The MIC [25] was ≤ 0.5 µg/mL, the MIC [26] was 16 µg/mL (≈ 20.2 µM) and the MIC [27] was 16 µg/mL (≈ 20.2 µM). The MIC [28] was 1 µg/mL (≈ 1.26 µM), the “minimum inhibitory concentration (MIC)” value [29] was >16 µg/mL and the MIC [30] was > 16 µg/mL.
